Structures can show the parent of a compound that is named as a salt. Marks after values point to notes of the source that are not given here. Ends that are not written are not given here.
How the values were obtained:
NPFF2-R [1] = target: T1, NPFF2-R (Homo sapiens, UniProt Q9Y5X5); assay type: binding
NPFF1-R [2] = target: T2, NPFF1-R (Homo sapiens, UniProt Q9GZQ6); assay type: binding
NPFF2-R [3] = target: T1, NPFF2-R; assay type: cell-based
NPFF1-R [4] = target: T2, NPFF1-R; assay: [35S]GTPγS binding assay, membranes of NPFF1-R expressing CHO cells; assay type: biochemical; settings: tested at 10 μM; % maximal activation
NPFF2-R [5] = target: T1, NPFF2-R; assay: [35S]GTPγS binding assay, membranes of NPFF2-R expressing CHO cells; assay type: biochemical; settings: tested at 10 μM; % maximal activation
NPFF1-R [6] = target: T2, NPFF1-R; assay type: cell-based
NPFF2-R [7] = target: T1, NPFF2-R; assay type: binding; remark: listed apart in the source
NPFF2-R [8] = target: T1, NPFF2-R; settings: cited from earlier work; for selectivity for the hNPFF2 subtype: radioligand competition binding assays
NPFF1-R [9] = target: T2, NPFF1-R; settings: read-out: cAMP hNPFF1-R antagonist activity EC50; data taken from ref 15; cited from earlier work
NPFF1-R [10] = target: T2, NPFF1-R; settings: read-out: hNPFF1-R Ki; radioligand displacement assays; cited from earlier work
[11] = target: membrane of rat spinal cord; settings: read-out: Ki in the membrane of rat spinal cord; cited from earlier work

T2 sequence (Q9GZQ6 whole entry): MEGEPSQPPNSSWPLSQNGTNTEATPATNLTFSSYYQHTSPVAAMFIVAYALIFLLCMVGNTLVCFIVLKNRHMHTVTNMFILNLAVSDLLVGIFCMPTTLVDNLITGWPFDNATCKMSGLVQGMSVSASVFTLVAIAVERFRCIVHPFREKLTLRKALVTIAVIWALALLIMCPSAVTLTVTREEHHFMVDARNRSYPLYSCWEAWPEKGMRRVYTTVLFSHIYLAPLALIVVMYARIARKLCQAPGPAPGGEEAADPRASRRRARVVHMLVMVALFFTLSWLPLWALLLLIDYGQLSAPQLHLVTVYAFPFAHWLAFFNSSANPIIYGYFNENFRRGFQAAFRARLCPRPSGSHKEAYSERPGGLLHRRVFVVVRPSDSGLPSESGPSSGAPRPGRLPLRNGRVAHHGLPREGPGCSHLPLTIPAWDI
T1 sequence (Q9Y5X5 whole entry): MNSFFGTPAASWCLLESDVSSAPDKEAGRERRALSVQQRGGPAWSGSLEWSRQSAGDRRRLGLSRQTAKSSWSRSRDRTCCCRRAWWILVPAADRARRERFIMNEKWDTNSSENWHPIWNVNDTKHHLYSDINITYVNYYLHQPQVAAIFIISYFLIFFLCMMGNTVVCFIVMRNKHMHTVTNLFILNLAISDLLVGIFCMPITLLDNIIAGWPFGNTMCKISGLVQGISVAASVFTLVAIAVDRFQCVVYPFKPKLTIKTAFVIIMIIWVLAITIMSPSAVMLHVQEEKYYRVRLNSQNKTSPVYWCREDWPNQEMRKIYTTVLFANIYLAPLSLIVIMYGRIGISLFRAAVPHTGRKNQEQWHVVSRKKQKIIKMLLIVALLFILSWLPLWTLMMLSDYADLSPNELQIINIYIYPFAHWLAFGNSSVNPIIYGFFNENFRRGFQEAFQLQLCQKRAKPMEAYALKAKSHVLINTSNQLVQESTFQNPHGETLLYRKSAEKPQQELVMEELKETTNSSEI

## N=C(N)NCC(=O)NCC1(Nc2ccccc2)CCN(CCc2ccccc2)CC1 [49c, 2-Guanidino-N-((1-phenethyl-4-(phenylamino)piperidin-4-yl)methyl)acetamide Tritriflate]
NPFF2-R [1]
  fold gain of affinity at NPFF2-R compared with lead 21: 1.2–3.1 fold

## N=C(N)NCC(=O)NCC1(Nc2ccccc2)CCN(CC2CCCCC2)CC1 [49b, N-((1-(Cyclohexylmethyl)-4-(phenylamino)piperidin-4-yl)methyl)-2-guanidinoacetamide Tritriflate]
NPFF2-R [1]
  fold gain of affinity at NPFF2-R compared with lead 21: 1.2–3.1 fold
NPFF1-R [2]
  fold loss of affinity at NPFF1-R relative to lead 21: 5 fold

## N=C(N)NCC(=O)NCC1(Cc2ccccc2)CCN(Cc2ccccc2)CC1 [compound 42, N-((1,4-Dibenzylpiperidin-4-yl)methyl)-2-guanidinoacetamide Ditriflate]
NPFF2-R [3]
  Highest concentration showing no agonist activity when tested alone, hNPFF2-R: 1K ^f
NPFF2-R [1]
  fold gain of affinity at NPFF2-R compared with lead 21: 5 fold

## N=C(N)NCC(=O)NCC1(Cc2ccc(-c3ccccc3)cc2)CCN(Cc2ccccc2)CC1 [53d, N-((1-Benzyl-4-(biphenyl-4-ylmethyl)piperidin-4-yl)methyl)-2-guanidinoacetamide Ditriflate]
NPFF2-R [1]
  fold loss of affinity at NPFF2-R relative to 53a: 30 fold
NPFF1-R [2]
  ratio, preference for NPFF1: 3-fold (NPFF1)

## N=C(N)NCC(=O)NCC1(Cc2ccc3ccccc3c2)CCN(Cc2ccccc2)CC1 [53c, N-((1-Benzyl-4-(naphthalen-2-ylmethyl)piperidin-4-yl)methyl)-2-guanidinoacetamide Ditriflate]
NPFF2-R [1]
  fold loss of affinity at NPFF2-R relative to 53a: 6.8 fold
  ratio, preference for NPFF2: 1.5-fold (NPFF2)

## N=C(N)NCCC[C@H](N)C(=O)NCC1(Nc2ccccc2)CCN(Cc2ccccc2)CC1 [7b, 2-Amino-N-((1-benzyl-4-(phenylamino)piperidin-4-yl)methyl)-5-guanidinopentanamide Hydrochloride]
NPFF1-R [4]
  % stimulation (increase) of [35S]GTPγS binding at NPFF1-R: 36 ^d %
NPFF2-R [5]
  % stimulation (increase) of [35S]GTPγS binding at NPFF2-R: 184 ^d %

## N=C(N)NCC(=O)NCC1(Cc2cccc3ccccc23)CCN(Cc2ccccc2)CC1 [53a, N-((1-Benzyl-4-(naphthalen-1-ylmethyl)piperidin-4-yl)methyl)-2-guanidinoacetamide Tritriflate]
NPFF2-R [3]
  Activity alone at NPFF2-R: low activity
NPFF2-R [1]
  fold gain of affinity at NPFF2-R compared with lead 21: 14 fold
  fold increase in affinity at NPFF2-R relative to lead 42: 2.8 fold
NPFF1-R [6]
  Activity alone at NPFF1-R: low activity

## N=C(N)NCCC[C@H](N)C(=O)NCC1CCN(Cc2ccccc2)CC1 [compound 15, 2-Amino-N-((1-benzylpiperidin-4-yl)methyl)-5-guanidinopentanamide Hydrochloride]
NPFF2-R [7]
  fold loss of affinity at NPFF2-R relative to 7b: 7 fold

## N=C(N)NCC(=O)NCC1(Nc2ccccc2)CCN(Cc2ccccc2)CC1 [compound 21, N-((1-Benzyl-4-(phenylamino)piperidin-4-yl)methyl)-2-guanidinoacetamide tritriflate]
NPFF2-R [3]
  % inhibition of forskolin-stimulated cAMP accumulation (cyclase) at NPFF2-R: 20–25 ^e %
  Agonist activity alone at NPFF2-R: weak partial agonist activity
NPFF2-R [1]
  fold increase in affinity at NPFF2-R compared with lead 7b: 2.6 fold
NPFF1-R [2]
  fold increase in affinity at NPFF1-R compared with lead 7b: 1.5 fold
NPFF1-R [6]
  Agonist activity alone at NPFF1-R: weak partial agonist activity

## N=C(N)NCC(=O)NCC1(Nc2ccccc2)CCN(Cc2ccc(Br)cc2)CC1 [49f, N-((1-(4-Bromobenzyl)-4-(phenylamino)piperidin-4-yl)methyl)-2-guanidinoacetamide Tritriflate]
NPFF1-R [2]
  fold gain of affinity at NPFF1-R compared with lead 21: 2.3–2.8 fold

## N=C(N)NCC(=O)NCC1(Cc2ccc(Cl)c(Cl)c2)CCN(Cc2ccccc2)CC1 [53b, N-((1-Benzyl-4-(3,4-dichlorobenzyl)piperidin-4-yl)methyl)-2-guanidinoacetamide Ditriflate]
NPFF2-R [1]
  fold loss of affinity at NPFF2-R relative to 53a: 2.7 fold

## N=C(N)NCC(=O)NCC1(CCc2ccccc2)CCN(Cc2ccccc2)CC1 [compound 43, N-((1-Benzyl-4-phenethylpiperidin-4-yl)methyl)-2-guanidinoacetamide Ditriflate]
NPFF2-R [1]
  fold loss of affinity at NPFF2-R relative to 42: 5.5 fold
NPFF1-R [2]
  ratio, preference for NPFF1: 3-fold (NPFF1)

## N=C(N)NCC(=O)NCC1(Nc2ccc(Cl)c(Cl)c2)CCN(Cc2ccccc2)CC1 [30d, N-((1-Benzyl-4-(3,4-dichlorophenylamino)piperidin-4-yl)methyl)-2-guanidinoacetamide Tritriflate]
NPFF1-R [2]
  ratio, preference for NPFF1: 2.1-fold (NPFF1)

## N=C(N)NCC(=O)NCC1(c2ccccc2)CCN(Cc2ccccc2)CC1 [compound 34, N-((1-Benzyl-4-phenylpiperidin-4-yl)methyl)-2-guanidinoacetamide Ditriflate]
NPFF2-R [1]
  fold loss of affinity at NPFF2-R relative to lead 21: 8.7 fold
NPFF1-R [2]
  fold loss of affinity at NPFF1-R relative to lead 21: 1.6 fold
  ratio, preference for NPFF1: 6.9-fold (NPFF1)

## n-adamantanecarbonyl-Arg-Phe-NH2 [RF9]
NPFF2-R [8]; read-out: hNPFF2-R Ki, radioligand displacement assays
  Ki: 75 ± 9 nM
NPFF1-R [9]
  EC50: 4700 ± 1200 nM
NPFF1-R [10]
  Ki: 58 ± 5 nM
NPFF1-R [6]
  cAMP hNPFF1-R Emax, %: 79 ± 5 ^c %

## COc1cccc(NC2(CNC(=O)CNC(=N)N)CCN(Cc3ccccc3)CC2)c1 [30c, N-((1-Benzyl-4-(3-methoxyphenylamino)piperidin-4-yl)methyl)-2-guanidinoacetamide Tritriflate]
NPFF1-R [2]
  ratio, preference for NPFF1: 4.4-fold (NPFF1)

## N=C(N)NCC(=O)NCC1(Nc2ccccc2)CCN(Cc2cccc3ccccc23)CC1 [49d, 2-Guanidino-N-((1-(naphthalen-1-ylmethyl)-4-(phenylamino)piperidin-4-yl)methyl)acetamide Tritriflate]
NPFF2-R [1]
  fold gain of affinity at NPFF2-R compared with lead 21: 1.2–3.1 fold

## N=C(N)NCC(=O)NCC1(Nc2cccc3ccccc23)CCN(Cc2ccccc2)CC1 [30a, N-((1-Benzyl-4-(naphthalen-1-ylamino)piperidin-4-yl)methyl)-2-guanidinoacetamide Tritriflate]
NPFF1-R [2]
  ratio, preference for NPFF1: 3.3-fold (NPFF1)
NPFF1-R [6]
  Highest concentration showing no agonist activity when tested alone, hNPFF1-R: >10K ^f

## SQAFLFQPQRFa (SQAFLFQPQRF-NH2; UniProt O15130 66-76, looked up) [hNPFF]
NPFF2-R [8]
  selectivity for the hNPFF2 subtype: 10.7 fold

## FLFQPQRFa [NPFF]
[11]
  Ki: 0.21 nM

## AGEGLSSPFWSLAAPQRFa [hNPAF]
NPFF2-R [8]
  selectivity for the hNPFF2 subtype: 10.1 fold

## N=C(N)NCC(=O)NCC1(Nc2ccccc2)CCN(Cc2ccc3ccccc3c2)CC1 [49e, 2-Guanidino-N-((1-(naphthalen-2-ylmethyl)-4-(phenylamino)piperidin-4-yl)methyl)acetamide Tritriflate]
NPFF1-R [2]
  fold gain of affinity at NPFF1-R compared with lead 21: 2.3–2.8 fold

## N=C(N)NCCNC(=O)C1(Nc2ccccc2)CCN(Cc2ccccc2)CC1 [compound 46, 1-Benzyl-N-(2-guanidinoethyl)-4-(phenylamino)piperidine-4-carboxamide Tritriflate]
NPFF1-R [2]
  fold gain of affinity at NPFF1-R compared with lead 21: 4 fold

## SLNFEELKDWGPKNVIKMSTPAVNKMPHSFANLPLRFa [hNPSF]
NPFF2-R [8]
  selectivity for the hNPFF2 subtype: 1.2 fold

## COc1cc(NC2(CNC(=O)CNC(=N)N)CCN(Cc3ccccc3)CC2)cc(OC)c1 [30b, N-((1-Benzyl-4-(3,5-dimethoxyphenylamino)piperidin-4-yl)methyl)-2-guanidinoacetamide Tritriflate]
NPFF1-R [2]
  ratio, preference for NPFF1: 8.7-fold (NPFF1)
NPFF1-R [6]
  Highest concentration showing no agonist activity when tested alone, hNPFF1-R: >10K ^f

Reference: PMC4234442 (Journal of Medicinal Chemistry, 2014)
